The structures appear in SMILES notation.

The nature of the data set: gradient 5% acetonitrile 3 min, to 50% in 2 min, to 85% in 15 min, held 3 min, 100 µL/min. Conditions: column: Zorbax Extend-C18 2.1 x 50 mm; eluents: water / acetonitrile, 0.1% formic acid. The procedure, abridged: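 The system's dead and dwell volumes were 40 μL and 900 μL, with a Zorbax Extend-C18 column (2.1 × 50 mm, 1.8 μm) run at 100 μL/min in water and acetonitrile containing 0.1% formic acid each. Pure standards were analyzed in mixtures of ~100 molecules by HPLC–quadrupole time-of-flight mass spectrometry in positive and negative ionization mode. Retention time was assigned from computationally picked, manually inspected adduct peaks.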
As for `CCc1noc([C@@H]2CC(F)(F)CN2C(=O)c2ocnc2C)n1`, the RP-LC retention time came to 720 s.
For the compound `CCOCc1cc(OC)c(-c2ccc(C[C@H](NC(=O)c3c(F)cccc3F)C(=O)O)cc2)c(OC)c1`, the RP-LC retention time stood at 1020 s.
To `CCn1nccc1C(=O)N1C[C@@H]2C[C@H](NS(=O)(=O)c3ccccc3)[C@H]1C2` belongs 677 s; to `CN(C)S(=O)(=O)c1cccc(-c2nnc(-c3ccccc3Br)o2)c1`, 947 s.
As for `CC(C)c1ccc2c(c1)-c1ccccc1S(=O)(=O)N2CC(=O)NCc1cccnc1`, the RP-LC retention time came out at 711 s.
To `COc1cccc2cc(C(=O)N3CC(c4nc(-c5cccs5)no4)C3)oc12` belongs 856 s.
On to `COc1ccc(NC(=O)CSc2ccc(N3CCCC(C(=O)NC4CC4)C3)nn2)cc1Cl` (stereo not given), for which the RP-LC retention time worked out at 624 s.
In turn, `CCn1cc(S(=O)(=O)N2CC(N(Cc3cccnc3)CC(C)C)C2)cn1` returned an RP-LC retention time of 592 s.
Consider `CC(CCc1ccco1)NC(=O)c1nnn(-c2ccccc2)c1-c1ccccn1` (stereo not given), for which the RP-LC retention time is 862 s.
With `CCc1nc2cc(-c3noc(-c4n[nH]c5c4CCCC5)n3)ccc2o1`, the RP-LC retention time was 1000 s.
The compound `O=C(NC1CCN(c2cc(-c3ccc(F)cc3)[nH]n2)CC1)C1COc2ccccc2O1` (stereo not given) yielded an RP-LC retention time of 824 s.
Compound `Cc1onc(-c2c(F)cccc2Cl)c1C(=O)N1CCOCC1` came in with an RP-LC retention time of 727 s.
`O=C(Cc1csc(NC(=O)NC2CCCC2)n1)NCCc1c[nH]c2ccccc12` registered an RP-LC retention time of 754 s.
As to `Cc1ccc(N2CCCS2(=O)=O)cc1NC(=O)C1CCCC1`, the RP-LC retention time amounted to 696 s.
As for `COCCCNC(=O)C1c2ccccc2C(=O)N1Cc1ccc(Cl)cc1` (stereo not given), the figure is 770 s; as for `Cc1nnc2c(NC(=O)Cc3cccc(C(F)(F)F)c3)cccn12`, 785 s.
As for `O=C(NC1CCCCC1)C1CCN(C(=O)C2Sc3ccccc3NC2=O)CC1` (stereo not given), the figure is 732 s; as for `CCCNC(=O)NCCc1cn(CC)c2ncccc12`, 612 s.
As for `COC1CCC12CCN(C(=O)c1cccs1)CC2` (stereo not given), the figure is 748 s.
In turn, `COC(=O)c1cc2n(n1)CC(C)(C(=O)NC1CCCC1)N(c1ccc(F)cc1C)C2=O` (stereo not given) came in with an RP-LC retention time of 845 s.
Turning to `CCOC(=O)c1nc(N(Cc2ccccc2)C(C)C)c2ccccc2n1`, the RP-LC retention time turned out to be 1000 s.
As to `O=C(O)CSc1nnc(-c2ccc(Cl)cc2Cl)n1Cc1ccccc1`, the RP-LC retention time amounted to 771 s.
To `Cc1cccc(N2CCN(c3ccc4cc(S(=O)(=O)N5CCOCC5)ccc4n3)CC2)c1C` belongs 1080 s; to `Cc1ccc(NC(=O)Cn2cnc3c(sc4nc(-c5ccccc5)ccc43)c2=O)cc1`, 859 s.
Regarding `O=C(Cn1c(=O)cc(-c2nc(C3CC3)no2)c2ccccc21)NCc1ccc(F)cc1`, the RP-LC retention time stood at 923 s.
For `CCC(=O)N(CCC1CCOC(C)(C)C1)Cc1ccc(OC)cc1` (stereo not given), the RP-LC retention time turned out to be 896 s.
`Clc1ccc(OCc2nn3c(CSc4ccccc4)nnc3s2)cc1`: the RP-LC retention time is 1040 s.
As for `O=c1n(Cc2ccccc2)nc2n1CCN(S(=O)(=O)c1ccccc1)CC2`, the RP-LC retention time worked out at 793 s.
Turning to `COc1ccc(Nc2c(-c3ccc(N4CCOCC4)cc3)nc3cnccn23)cc1OC`, the RP-LC retention time is 674 s.
As for `COc1cccc(CNC(=O)c2c(C)sc3ccn(CC(C)C)c(=O)c23)c1`, the figure is 960 s; as for `CCc1onc(C)c1C1CCCN1C(=O)Nc1ccccc1Cl` (stereo not given), 907 s; as for `CCc1ccc(C(=O)Nc2cc3c(cc2S(=O)(=O)C(C)C)n(C)c(=O)n3C)cc1`, 747 s.
In turn, `O=C1NC2CCCCC2=C1CC(=O)N1CCCCC1` (stereo not given) had an RP-LC retention time of 633 s.
`O=C(COc1ccccc1)N1CCN(c2nc(CN3CCOCC3)cs2)CC1` registered an RP-LC retention time of 615 s.
With `CN(CC1CCCO1)C1CCN(C(=O)C2CCN(c3ccc(-c4cccs4)nn3)CC2)CC1` (stereo not given), the RP-LC retention time was found to be 567 s.
Consider `O=S(=O)(c1ccc2c(c1)CCC2)N1CC[C@@H]2COCCN(Cc3cccnc3)[C@@H]2C1`, for which the RP-LC retention time is 687 s.
As for `CC(C)NC(=O)CN1C(=O)C2CCCCN2c2ccc(S(=O)(=O)N3CCCC3)cc21` (stereo not given), the figure is 810 s; as for `Cn1c(CCNC(=O)c2ccc(C(F)(F)F)cc2)nc2cccnc21`, 686 s.
Compound `Cc1ccccc1NC(=O)C1CCCN(c2ncnc3c2nc2n3CCCCC2)C1` (stereo not given) showed an RP-LC retention time of 766 s.
`CCn1ccc(NC(=O)Nc2cc(C)ccc2C)n1` returned an RP-LC retention time of 869 s.
On to `Cc1cccc(-c2[nH]ncc2CN)c1`, for which the RP-LC retention time was 561 s.
Consider `C=CCN1N=C(C(=O)N2CCC(C)CC2)S(=O)(=O)c2ccc(Cl)cc21`, for which the RP-LC retention time was 997 s.
For the compound `COc1cccc(-c2nc(NCC3CCCO3)ncc2C(=O)O)c1` (stereo not given), the RP-LC retention time was 712 s.
As for `Cc1ccc(C)c(-c2coc(-c3ccc(NC(=O)NCCc4ccccc4)cc3)n2)c1`, the RP-LC retention time stood at 1240 s.
To `O=C(Nc1ccc2c(N3CCCCC3)ncnc2c1)c1ccc(Br)o1` belongs 685 s; to `O=C(NCC(O)c1ccsc1)C1(c2ccccc2)CCOCC1` (stereo not given), 667 s.
The compound `Cc1ccc(CNC(=O)C2CCN(C(=O)c3ncn4c3COC(c3ccccc3)C4)CC2)cc1` (stereo not given) gave an RP-LC retention time of 782 s.
The compound `COc1cc(C2OC(c3ccc(F)cc3)=NN2C(C)=O)cc(OC)c1OC` (stereo not given) yielded an RP-LC retention time of 902 s.
In turn, `COc1ccc(CCc2nc3nccc(-c4cccnc4)n3n2)cc1` yielded an RP-LC retention time of 720 s.
`CCCCNC(=O)C1CCN(C(=O)Nc2ccc(NC(=O)NC3CCCC3)cc2)CC1` displayed an RP-LC retention time of 684 s.
For the compound `CN1CCC(Nc2ncc3ncnc(Nc4ccc(F)c(Cl)c4)c3n2)CC1`, the RP-LC retention time turned out to be 710 s.
`CCCOc1ccc(C(=O)N(Cc2ccc(Br)o2)C2CCS(=O)(=O)C2)cc1` (stereo not given) had an RP-LC retention time of 1010 s.
On to `Cc1cccc(-c2nc(C)c3c(n2)N(Cc2cccnc2)C(=O)CC3)c1`, for which the RP-LC retention time stood at 722 s.
The compound `CC(C)c1ccc(-c2noc(N3CCC(C(=O)N4CCCCCC4)CC3)n2)cc1` returned an RP-LC retention time of 1180 s.
As to `Cc1ccc(Cl)cc1NC(=O)N1CCCC(Cn2cnc3cccnc32)C1` (stereo not given), the RP-LC retention time was 709 s.
Regarding `CC(C)Cn1c(=O)c(-c2ccc(C(=O)NCc3cccnc3)cc2)nc2ccccc21`, the RP-LC retention time turned out to be 693 s.
Regarding `Cc1ccc(NC(=O)CN2C(=O)CCCc3cc(S(=O)(=O)N4CCCC4)ccc32)c(Cl)c1`, the RP-LC retention time turned out to be 912 s.
As for `Cc1oc2cc3oc(=O)c(CC(=O)N4CCC(C(N)=O)CC4)c(C)c3cc2c1C`, the figure is 697 s; as for `CCOC(=O)c1sc(NCCc2c[nH]c3ccc(OC)cc23)nc1-c1ccccc1`, 1040 s; as for `CC(=O)N1CCN(C(=O)c2cccn2CC(=O)N2CCc3ccccc32)CC1`, 627 s.
On to `Cc1c(C(=O)N2CCSCC2)cnn1-c1ccc(-c2nc(C3CC3)no2)cn1`, for which the RP-LC retention time stood at 960 s.
As for `NC(=O)c1ccc(Oc2ccc(C(N)=O)cc2)cc1`, the RP-LC retention time came to 654 s.
`NC(=O)c1ccc(NC(=O)c2sc3ncccc3c2-n2cccc2)cc1`: the RP-LC retention time was 728 s.
Regarding `COCCNC(=O)C1CCN(c2nc3ccc(-c4ccsc4)nc3s2)CC1`, the RP-LC retention time was determined as 774 s.
With `O=C1CC(c2noc(-c3ccc(-c4ccccc4)cc3)n2)CN1c1ccc(F)cc1` (stereo not given), the RP-LC retention time amounted to 1200 s.
As for `CCn1cc(-c2nc(CC(=O)Nc3ccc(Cl)cc3F)cs2)c2cccnc21`, the RP-LC retention time amounted to 1100 s.
As for `CN1CCCc2cc(C(CNC(=O)C(=O)Nc3ccc4c(c3)OCO4)N3CCCCC3)ccc21` (stereo not given), the RP-LC retention time was 718 s.
Consider `CCC(C(=O)N1CCC(c2cc3n(n2)CCCNC3=O)CC1)c1ccccc1` (stereo not given), for which the RP-LC retention time stood at 694 s.
To `CC(C)c1ccc(-c2nc(C3CC(=O)N(c4ccc(Cl)cc4)C3)no2)cc1` (stereo not given) belongs 1300 s; to `Cc1nn(CC(=O)N2CCC(Cc3ccccc3)CC2)c(=O)c2noc(C)c12`, 832 s.
`COC(=O)C1=CN(c2ccc(F)c(Cl)c2)c2ccccc2S1(=O)=O` registered an RP-LC retention time of 910 s.
`COc1ccc(OC)c(NC(=O)C2CC(=O)N(c3n[nH]c4cccc(F)c34)C2)c1` (stereo not given) yielded an RP-LC retention time of 732 s.
In turn, `Cn1nc(C(=O)N2CCCC2)c2c1CCN(C(=O)Nc1cc(F)ccc1F)C2` returned an RP-LC retention time of 728 s.
As for `Cc1ccc(S(=O)(=O)N2CC(=O)N(Cc3ccccc3)C(C)(C(=O)NCc3ccccc3)C2)cc1` (stereo not given), the figure is 1010 s; as for `COc1ccc(-c2ncc3c(n2)CCN(C(=O)c2ccccc2C(F)(F)F)C3)cc1`, 983 s.
For the compound `O=C(c1ccco1)N1CCC(O)(c2ccccc2)[C@H](N2CCCC2)C1` (stereo not given in full), the RP-LC retention time stood at 555 s.
`CC1CCCCN1CCNC(=O)c1csc(-c2ccc(N3CCCC3)nc2)n1` (stereo not given) gave an RP-LC retention time of 557 s.
`Cn1cc(-c2ccncc2)c(-c2ccc(OCc3ccc4ccccc4n3)cc2)n1` had an RP-LC retention time of 717 s.
As for `Cc1ccc2c(c1)N(C(=O)Cn1cnc3nc4c(cc3c1=O)CCCC4)CCO2`, the figure is 782 s.
Take `CC(C)CC(=O)N1CCC(CC(=O)N2CCOCC2)C1` (stereo not given): the RP-LC retention time came to 622 s.
